In patent EP1806346B1, “Substituted piperazine compounds and their use as fatty acid oxidation inhibitors” (CV THERAPEUTICS, INC., priority 2002, dated 2004) one finds IC50 data, which are given here for twelve compounds.

Structures are written as SMILES.

One may read the IC50 as the concentration that inhibits the measured activity by half.

The experiment concerns Palmitoyl CoA oxidation. Briefly: Mitochondrial assay: palmitoyl CoA oxidation. The experiment is classed as biochemical. The note with it: Rat heart mitochondria, 16 µM 1-14C palmitoyl CoA, 15 min at 30°C, 14C bicarbonate counted; read-out: PalmCoA IC50. As to the method:
Rat heart mitochondria were isolated by the method ofNedergard and Cannon (Methods in Enzymol. 55, 3, 1979).
Palmitoyl CoA oxidation - The Palmityl CoA oxidation was carried out in a total volume of 100 µL containing the following agents: 110 mM KCl, 33 mM Tris buffer at pH 8, 2 mM KPi, 2 mM MgCl2, 0.1 mM EDTA, 14.7 µM defatted BSA, 0.5 mM malic acid, 13 mM carnitine, 1 mM ADP, 52 µg of mitochondrial protein, and 16 µM 1-14C palmitoyl CoA (Sp. Activity 60 mCi/mmole; 20 µCi/mL, using 5 µL per assay). The compounds of this invention were added in a DMSO solution at the following concentrations: 100 µM, 30 µM, and 3 µM. In each assay, a DMSO control was used. After 15 min at 30°C, the enzymatic reaction was centrifuged (20,000 g for 1 min), and 70 µL of the supernatant was added to an activated reverse phase silicic acid column (approximately 0.5 mL of silicic acid). The column was eluted with 2 mL of water, and 0.5 mL of the eluent was used for scintillation counting to determine the amount of ^14C trapped as ^14C bicarbonate ion.
On to `Cc1nc2cc(OC[C@H](O)CN3CCN(CC(=O)Nc4cccc5c4CCC5)CC3)ccc2s1`, for which the IC50 is 15 µM.

With `Cc1nc2cc(OC[C@H](O)CN3CCN(CC(=O)Nc4ccc(Oc5ccccc5)cc4)CC3)ccc2s1`, the IC50 came to 0.33 µM.

Consider `O=C(CN1CCN(C[C@@H](O)COc2ccc3oc(-c4ccccc4)nc3c2)CC1)Nc1cccc(Oc2ccccc2)c1`, for which the IC50 turned out to be 8.5 µM.

As for `Cc1nc2cc(OC[C@H](O)CN3CCN(CC(=O)Nc4cccc(-c5ccccc5)c4)CC3)ccc2s1`, the IC50 was 0.18 µM.

For `CCn1c2ccccc2c2cc(NC(=O)CN3CCN(C[C@@H](O)COc4ccc5sc(C)nc5c4)CC3)ccc21`, the IC50 is 0.85 µM.

In the case of `O=C(CN1CCN(C[C@@H](O)COc2ccc3oc(-c4ccccc4)nc3c2)CC1)Nc1ccc2ncccc2c1`, the IC50 came to 6.2 µM.

On to `Cc1nc2cc(OC[C@H](O)CN3CCN(CC(=O)Nc4cccc5cccnc45)CC3)ccc2s1`, for which the IC50 amounted to 5.2 µM.

With `Cc1nc2cc(OC[C@H](O)CN3CCN(CC(=O)Nc4nc(-c5ccc(Cl)cc5)cs4)CC3)ccc2s1`, the IC50 amounted to 7 µM.

In the case of `Cc1nc2cc(OC[C@H](O)CN3CCN(CC(=O)Nc4nc(-c5ccc(Cl)cc5)cs4)C[C@@H]3C)ccc2s1`, the IC50 turned out to be 0.4 µM.

`Cc1nc2cc(OC[C@H](O)CN3CCN(CC(=O)N[C@H]4CCCc5ccccc54)CC3)ccc2s1`: the IC50 worked out at 0.08 µM.

In the case of `Cc1nc2cc(OC[C@H](O)CN3CCN(CC(=O)N[C@@H](C)c4ccc5ccccc5c4)CC3)ccc2s1`, the IC50 came to 0.85 µM.

On to `Cc1nc2cc(OC[C@H](O)CN3CCN(CC(=O)N[C@@H](C)c4ccccc4)CC3)ccc2s1`, for which the IC50 turned out to be 4.4 µM.
